Measured values reported in paper PMC5218480 (PLoS ONE, 2017).

Tested on: MV-4-11 cells
Experiment: Gene expression microarray analysis (Affymetrix PrimeView) and GSEA
Assay type: cell-based, human
Set-up: RFU PODN (11730768_x_at) / Fold change /veh PODN (11730768_x_at) / RFU LINC00158 (11744669_a_at) / Fold change /veh LINC00158 (11744669_a_at) / RFU DUSP10 (11751237_a_at) / Fold change /veh DUSP10 (11751237_a_at) / RFU ID3 (11757404_x_at) / Fold change /veh ID3 (11757404_x_at) / RFU PLEKHG5 (11737974_s_at) / Fold change /veh PLEKHG5 (11737974_s_at) / RFU LRRC4B (11730491_at) / Fold change /veh LRRC4B (11730491_at) / RFU GIMAP4 (11747438_a_at) / Fold change /veh GIMAP4 (11747438_a_at) / RFU KRT8 (11758183_x_at) / Fold change /veh KRT8 (11758183_x_at) / RFU CNN1 (11734310_a_at) / Fold change /veh CNN1 (11734310_a_at) / RFU VPS37D (11726825_at) / Fold change /veh VPS37D (11726825_at) / RFU C10orf10 (11716522_x_at) / Fold change /veh C10orf10 (11716522_x_at) / RFU KIR2DL2 /// KIR2DL4 /// KIR2DL5A /// KIR2DL5B /// KIR2DS1 /// KIR2DS2 /// KIR2DS3 /// KIR2DS4 /// KIR3DL3 /// KIR3DL3 /// KIR3DS1 (11738374_at) / Fold change /veh KIR2DL2 /// KIR2DL4 /// KIR2DL5A /// KIR2DL5B /// KIR2DS1 /// KIR2DS2 /// KIR2DS3 /// KIR2DS4 /// KIR3DL3 /// KIR3DL3 /// KIR3DS1 (11738374_at) / RFU C1QL1 (11718748_at) / Fold change /veh C1QL1 (11718748_at) / RFU TMPRSS4 (11747572_a_at) / Fold change /veh TMPRSS4 (11747572_a_at) / RFU HAMP (11756126_x_at) / Fold change /veh HAMP (11756126_x_at) / RFU RNFT2 (11725882_a_at) / Fold change /veh RNFT2 (11725882_a_at) / RFU NR4A2 (11747474_a_at) / Fold change /veh NR4A2 (11747474_a_at) / RFU ABCC12 (11746883_a_at) / Fold change /veh ABCC12 (11746883_a_at) / RFU TMEM136 (11760407_x_at) / Fold change /veh TMEM136 (11760407_x_at) / RFU CLDN22 /// WWC2 (11732394_at) / Fold change /veh CLDN22 /// WWC2 (11732394_at) / RFU HLA-DPB1 (11760878_x_at) / Fold change /veh HLA-DPB1 (11760878_x_at) / RFU SPINT1 (11716480_a_at) / Fold change /veh SPINT1 (11716480_a_at) / RFU GAP43 (11754022_s_at) / Fold change /veh GAP43 (11754022_s_at) / RFU A4GNT (11735810_at) / Fold change /veh A4GNT (11735810_at) / RFU PRB3 (11715151_x_at) / Fold change /veh PRB3 (11715151_x_at) / RFU TUBB4B (11761932_at) / Fold change /veh TUBB4B (11761932_at) / RFU CAPN14 (11732068_a_at) / Fold change /veh CAPN14 (11732068_a_at) / RFU TMCC2 (11721928_a_at) / Fold change /veh TMCC2 (11721928_a_at) / RFU IRGQ (11745062_a_at) / Fold change /veh IRGQ (11745062_a_at) / RFU FAM174B (11720279_a_at) / Fold change /veh FAM174B (11720279_a_at) / RFU TMPRSS4 (11748680_a_at) / Fold change /veh TMPRSS4 (11748680_a_at) / RFU FAM212B (11763350_a_at) / Fold change /veh FAM212B (11763350_a_at) / RFU PLEKHG5 (11743358_a_at) / Fold change /veh PLEKHG5 (11743358_a_at) / RFU ZSCAN30 (11745921_a_at) / Fold change /veh ZSCAN30 (11745921_a_at) / RFU CMKLR1 (11741424_a_at) / Fold change /veh CMKLR1 (11741424_a_at) / RFU LOC101060620 /// MAPK8IP1 (11723275_at) / Fold change /veh LOC101060620 /// MAPK8IP1 (11723275_at) / RFU SPTSSB (11747773_x_at) / Fold change /veh SPTSSB (11747773_x_at) / RFU PRSS12 (11739890_at) / Fold change /veh PRSS12 (11739890_at) / RFU BIN1 (11741810_x_at) / Fold change /veh BIN1 (11741810_x_at) / RFU WNT11 (11732464_a_at) / Fold change /veh WNT11 (11732464_a_at) / RFU C10orf10 (11716521_a_at) / Fold change /veh C10orf10 (11716521_a_at) / RFU C5orf56 (11738089_at) / Fold change /veh C5orf56 (11738089_at) / RFU CYB561 (11721691_x_at) / Fold change /veh CYB561 (11721691_x_at) / RFU ANKRD19P (11752326_a_at) / Fold change /veh ANKRD19P (11752326_a_at) / RFU OR2T12 /// OR2T33 /// OR2T8 (11738714_s_at) / Fold change /veh OR2T12 /// OR2T33 /// OR2T8 (11738714_s_at) / RFU VCAN (11748164_a_at) / Fold change /veh VCAN (11748164_a_at) / RFU JSRP1 (11732532_at) / Fold change /veh JSRP1 (11732532_at) / RFU KRTAP10-11 (11738290_x_at) / Fold change /veh KRTAP10-11 (11738290_x_at) / RFU MYO3A (11730013_a_at) / Fold change /veh MYO3A (11730013_a_at) / RFU EBF3 (11725865_a_at) / Fold change /veh EBF3 (11725865_a_at) / RFU CAMK2N1 (11719241_x_at) / Fold change /veh CAMK2N1 (11719241_x_at) / RFU C5orf56 (11738088_a_at) / Fold change /veh C5orf56 (11738088_a_at) / RFU OLFML3 (11715873_a_at) / Fold change /veh OLFML3 (11715873_a_at) / RFU LOC100653217 /// NTM (11731650_a_at) / Fold change /veh LOC100653217 /// NTM (11731650_a_at) / RFU MAPK11 (11762145_a_at) / Fold change /veh MAPK11 (11762145_a_at) / RFU FIZ1 (11724087_x_at) / Fold change /veh FIZ1 (11724087_x_at) / RFU OASL (11726364_x_at) / Fold change /veh OASL (11726364_x_at) / RFU SOX15 (11748057_x_at) / Fold change /veh SOX15 (11748057_x_at) / RFU CD79A (11719716_a_at) / Fold change /veh CD79A (11719716_a_at) / RFU HIST1H1D (11736915_at) / Fold change /veh HIST1H1D (11736915_at) / RFU CASKIN2 (11723855_a_at) / Fold change /veh CASKIN2 (11723855_a_at) / RFU LOC730098 (11760151_x_at) / Fold change /veh LOC730098 (11760151_x_at) / RFU OR4N2 (11742367_at) / Fold change /veh OR4N2 (11742367_at) / RFU PRRT2 (11749266_a_at) / Fold change /veh PRRT2 (11749266_a_at) / RFU SNX32 (11753110_a_at) / Fold change /veh SNX32 (11753110_a_at) / RFU CDHR5 (11726645_a_at) / Fold change /veh CDHR5 (11726645_a_at) / RFU RCAN1 (11760418_a_at) / Fold change /veh RCAN1 (11760418_a_at) / RFU FAM167A (11723789_a_at) / Fold change /veh FAM167A (11723789_a_at) / RFU FAM26E (11764081_at) / Fold change /veh FAM26E (11764081_at) / RFU ISYNA1 (11749810_s_at) / Fold change /veh ISYNA1 (11749810_s_at) / RFU ACY1 (11761880_at) / Fold change /veh ACY1 (11761880_at) / RFU 11764098_at / Fold change /veh 11764098_at / RFU SAMD14 (11745864_x_at) / Fold change /veh SAMD14 (11745864_x_at) / RFU NPB (11741838_a_at) / Fold change /veh NPB (11741838_a_at) / RFU TMPRSS6 (11731388_a_at) / Fold change /veh TMPRSS6 (11731388_a_at) / RFU KRTAP10-2 (11738614_at) / Fold change /veh KRTAP10-2 (11738614_at) / RFU ARHGAP8 /// PRR5-ARHGAP8 (11727945_x_at) / Fold change /veh ARHGAP8 /// PRR5-ARHGAP8 (11727945_x_at) / RFU KRTAP5-7 /// NADSYN1 (11734609_at) / Fold change /veh KRTAP5-7 /// NADSYN1 (11734609_at) / RFU RASL12 (11751679_a_at) / Fold change /veh RASL12 (11751679_a_at) / RFU CDKN2B (11736163_a_at) / Fold change /veh CDKN2B (11736163_a_at) / RFU PRF1 (11729649_at) / Fold change /veh PRF1 (11729649_at) / RFU, ZNF638 /// ZNF638-IT1 / Fold change vs veh, ZNF638 /// ZNF638-IT1 / RFU, PANK3 / Fold change vs veh, PANK3 / RFU, SH3YL1 / Fold change vs veh, SH3YL1 / RFU, ZEB2 / Fold change vs veh, ZEB2 / RFU, NRIP1 / Fold change vs veh, NRIP1 / RFU, PTTG1IP / Fold change vs veh, PTTG1IP / RFU, CAPN2 / Fold change vs veh, CAPN2 / RFU, MED14 / Fold change vs veh, MED14 / RFU, SNORA58 / Fold change vs veh, SNORA58 / RFU, C1orf63 / Fold change vs veh, C1orf63 / RFU, LRRFIP1 / Fold change vs veh, LRRFIP1 / RFU, NDUFAF7 / Fold change vs veh, NDUFAF7 / RFU, SLC12A2 / Fold change vs veh, SLC12A2 / RFU, IBTK / Fold change vs veh, IBTK / RFU, ESF1 / Fold change vs veh, ESF1 / Fold change vs veh, TMEM50B / RFU, TAOK1 / Fold change vs veh, TAOK1 / RFU, ACBD3 / Fold change vs veh, ACBD3 / RFU, TMA16 / Fold change vs veh, TMA16 / RFU, RWDD3 / Fold change vs veh, RWDD3 / RFU, BCAT1 / Fold change vs veh, BCAT1 / RFU, EDEM3 / Fold change vs veh, EDEM3 / RFU, TMEM33 / Fold change vs veh, TMEM33 / RFU, WDR75 / Fold change vs veh, WDR75 / RFU, AHCTF1 / Fold change vs veh, AHCTF1 / RFU, TFRC / Fold change vs veh, TFRC / RFU, ZDHHC17 / Fold change vs veh, ZDHHC17 / RFU, NOM1 / Fold change vs veh, NOM1 / RFU, ARL8B / Fold change vs veh, ARL8B / RFU, ZBTB11 / Fold change vs veh, ZBTB11 / RFU, TAMM41 / Fold change vs veh, TAMM41 / RFU, KIAA1704 /// LOC100996395 / Fold change vs veh, KIAA1704 /// LOC100996395 / RFU, ING1 / Fold change vs veh, ING1 / RFU, TRMT61B / Fold change vs veh, TRMT61B / RFU, FUBP3 / Fold change vs veh, FUBP3 / RFU, TP53 / Fold change vs veh, TP53 / RFU, TNKS2 / Fold change vs veh, TNKS2 / RFU, ZFP14 / Fold change vs veh, ZFP14 / RFU, ACTR2 / Fold change vs veh, ACTR2 / RFU, PPP3R1 / Fold change vs veh, PPP3R1 / RFU, PIK3R1 / Fold change vs veh, PIK3R1 / RFU, HNRNPA1 / Fold change vs veh, HNRNPA1 / RFU, RNF170 / Fold change vs veh, RNF170 / RFU, ZNF28 / Fold change vs veh, ZNF28 / RFU, RNGTT / Fold change vs veh, RNGTT / RFU, OGT / Fold change vs veh, OGT / RFU, BRD1 / Fold change vs veh, BRD1 / RFU, MARS / Fold change vs veh, MARS / RFU, ZNF655 / Fold change vs veh, ZNF655 / RFU, FAHD1 / Fold change vs veh, FAHD1 / RFU, BDP1 / Fold change vs veh, BDP1 / RFU, LRRCC1 / Fold change vs veh, LRRCC1 / RFU, ARID1A / Fold change vs veh, ARID1A / RFU, ZNF146 / Fold change vs veh, ZNF146 / RFU, ZNF330 / Fold change vs veh, ZNF330 / RFU, GPN3 / Fold change vs veh, GPN3 / RFU, C9orf123 / Fold change vs veh, C9orf123 / RFU, N4BP2L2 / Fold change vs veh, N4BP2L2 / RFU, ARFIP1 / Fold change vs veh, ARFIP1 / RFU, FAM179B / Fold change vs veh, FAM179B / RFU, BCL10 / Fold change vs veh, BCL10 / RFU, UHRF1BP1L / Fold change vs veh, UHRF1BP1L / RFU, BET1 / Fold change vs veh, BET1 / RFU, CNOT2 / Fold change vs veh, CNOT2 / RFU, ZNF268 / Fold change vs veh, ZNF268 / Fold change vs veh, ZNF507 / RFU, DGCR2 / Fold change vs veh, DGCR2 / RFU, WDSUB1 / Fold change vs veh, WDSUB1 / Fold change vs veh, HSP90B1 /// MIR3652 / RFU, ADSS / Fold change vs veh, ADSS / RFU, GK / Fold change vs veh, GK / RFU, ZNF148 / Fold change vs veh, ZNF148 / RFU, TAF9 / Fold change vs veh, TAF9 / RFU, SLC1A5 / Fold change vs veh, SLC1A5 / RFU, SLMO2 / Fold change vs veh, SLMO2 / RFU, ABCC4 / Fold change vs veh, ABCC4 / RFU, LOC101060439 /// RAP1B / Fold change vs veh, LOC101060439 /// RAP1B / RFU, RFX7 / Fold change vs veh, RFX7 / RFU, GTPBP10 / Fold change vs veh, GTPBP10 / RFU, CNEP1R1 / Fold change vs veh, CNEP1R1 / RFU, BIVM-ERCC5 /// ERCC5 / Fold change vs veh, BIVM-ERCC5 /// ERCC5 / RFU, ILF3 / Fold change vs veh, ILF3 / RFU 11762660_at / Fold change /veh 11762660_at / RFU VCAN (11757783_s_at) / Fold change /veh VCAN (11757783_s_at) / RFU DDX43 (11728927_at) / Fold change /veh DDX43 (11728927_at) / RFU KRT8 (11758188_x_at) / Fold change /veh KRT8 (11758188_x_at) / RFU NKD1 (11759106_at) / Fold change /veh NKD1 (11759106_at) / RFU SRD5A1 (11742802_a_at) / Fold change /veh SRD5A1 (11742802_a_at) / RFU TPSAB1 /// TPSB2 (11721975_s_at) / Fold change /veh TPSAB1 /// TPSB2 (11721975_s_at) / RFU GSTM3 (11746129_a_at) / Fold change /veh GSTM3 (11746129_a_at) / RFU IL23R (11737362_x_at) / Fold change /veh IL23R (11737362_x_at) / RFU TMEM51 (11727254_a_at) / Fold change /veh TMEM51 (11727254_a_at) / RFU PIWIL2 (11732686_x_at) / Fold change /veh PIWIL2 (11732686_x_at) / RFU ORM1 (11744905_x_at) / Fold change /veh ORM1 (11744905_x_at) / RFU CCDC152 (11743942_at) / Fold change /veh CCDC152 (11743942_at) / RFU ECM1 (11717891_a_at) / Fold change /veh ECM1 (11717891_a_at) / RFU IL23R (11748794_a_at) / Fold change /veh IL23R (11748794_a_at) / RFU TNFAIP8L3 (11732012_x_at) / Fold change /veh TNFAIP8L3 (11732012_x_at) / RFU MBOAT4 (11741988_at) / Fold change /veh MBOAT4 (11741988_at) / RFU 11764193_at / Fold change /veh 11764193_at / RFU TMEM53 (11763286_at) / Fold change /veh TMEM53 (11763286_at) / RFU MAGEB2 (11727129_at) / Fold change /veh MAGEB2 (11727129_at) / RFU TMEM200A (11744735_a_at) / Fold change /veh TMEM200A (11744735_a_at) / RFU CCDC152 (11751479_a_at) / Fold change /veh CCDC152 (11751479_a_at) / RFU FAM211A (11726209_a_at) / Fold change /veh FAM211A (11726209_a_at) / RFU RGS16 (11746705_a_at) / Fold change /veh RGS16 (11746705_a_at) / RFU VCAN (11755009_s_at) / Fold change /veh VCAN (11755009_s_at) / RFU RHOB (11743442_s_at) / Fold change /veh RHOB (11743442_s_at) / RFU RGS16 (11720943_a_at) / Fold change /veh RGS16 (11720943_a_at) / RFU RGS16 (11720944_at) / Fold change /veh RGS16 (11720944_at) / RFU, VPS4B / Fold change vs veh, VPS4B / RFU, CREB1 / Fold change vs veh, CREB1 / RFU, DNAJC13 / Fold change vs veh, DNAJC13 / RFU, GNAQ / Fold change vs veh, GNAQ / RFU, CDK5R1 / Fold change vs veh, CDK5R1 / RFU, ZRANB3 / Fold change vs veh, ZRANB3 / RFU, CUL4A / Fold change vs veh, CUL4A / RFU, CCNY / Fold change vs veh, CCNY / RFU, UFL1 / Fold change vs veh, UFL1 / RFU, COG3 / Fold change vs veh, COG3 / RFU, DIAPH2 / Fold change vs veh, DIAPH2 / RFU, SKA2 / Fold change vs veh, SKA2 / RFU, AFF3 / Fold change vs veh, AFF3 / RFU, LMF1 / Fold change vs veh, LMF1 / RFU, IPO11 / Fold change vs veh, IPO11 / RFU, DFFB / Fold change vs veh, DFFB / RFU, FOXP1 / Fold change vs veh, FOXP1 / RFU, CARD8 / Fold change vs veh, CARD8 / RFU, STRN3 / Fold change vs veh, STRN3 / RFU, ADK / Fold change vs veh, ADK / RFU, RASSF2 / Fold change vs veh, RASSF2 / RFU, WIPF1 / Fold change vs veh, WIPF1 / RFU, LARP1B / Fold change vs veh, LARP1B / RFU, RASA1 / Fold change vs veh, RASA1 / RFU, RB1 / Fold change vs veh, RB1 / RFU, PPFIA1 / Fold change vs veh, PPFIA1 / RFU, MAT2A / Fold change vs veh, MAT2A / RFU, CCT5 / Fold change vs veh, CCT5 / RFU, WDR92 / Fold change vs veh, WDR92 / RFU, CUX1 / Fold change vs veh, CUX1 / RFU, TTC7A / Fold change vs veh, TTC7A / RFU, TMEM135 / Fold change vs veh, TMEM135 / RFU, DEPTOR / Fold change vs veh, DEPTOR / RFU, CPM / Fold change vs veh, CPM / RFU, DNAJB6 / Fold change vs veh, DNAJB6 / RFU, CACNA2D3 / Fold change vs veh, CACNA2D3 / RFU, DTX4 / Fold change vs veh, DTX4 / RFU, TFCP2 / Fold change vs veh, TFCP2 / RFU, GMCL1 /// GMCL1P1 / Fold change vs veh, GMCL1 /// GMCL1P1 / RFU, AEBP2 / Fold change vs veh, AEBP2 / RFU, SNHG1 /// SNORD22 /// SNORD25 /// SNORD26 /// SNORD27 /// SNORD28 /// SNORD29 /// SNORD31 / Fold change vs veh, SNHG1 /// SNORD22 /// SNORD25 /// SNORD26 /// SNORD27 /// SNORD28 /// SNORD29 /// SNORD31 / Fold change (Aza/veh), C12orf56 (ProbeSet 11735607_a_at) / Fold change (ACY-1035/veh), C12orf56 (ProbeSet 11735607_a_at) / Fold change (Aza/veh), FGFR1OP (ProbeSet 11751329_s_at) / Fold change (ACY-1035/veh), FGFR1OP (ProbeSet 11751329_s_at) / Fold change (Aza/veh), VPS36 (ProbeSet 11739960_a_at) / Fold change (ACY-1035/veh), VPS36 (ProbeSet 11739960_a_at) / RFU SYPL1 (11715823_x_at) / Fold change /veh SYPL1 (11715823_x_at) / RFU IGFBP7 (11715501_s_at) / Fold change /veh IGFBP7 (11715501_s_at) / RFU REEP3 (11722064_at) / Fold change /veh REEP3 (11722064_at) / RFU IGLL1 (11728026_x_at) / Fold change /veh IGLL1 (11728026_x_at): dose or concentration left out as unconfirmed
Conditions: ProbeSet 11716331_a_at; LIST D

## Nc1ccc(-c2cccs2)cc1NC(=O)c1ccc2c(c1)cc(C1CC1)n2CCN1CCOCC1 [ACY-1035]
  Fold change vs veh, DNAJB6: 0.86
